Laboratory results taken from US8889699B2, “5-fluorouracil derivative” (Delta-Fly Pharma, Inc., priority 2009, dated 2014).
Like-named read-outs stand apart in the source and are kept apart here.

Target: T1, DPD (Rattus norvegicus, UniProt O89000)
T1 construct: the obtained supernatant was used as a DPD enzyme solution or an OPRT enzyme solution; from tissue; host or cells: liver of 8-week old SD rat; 105,000 g supernatant of homogenate
T1 sequence (O89000 1-1025): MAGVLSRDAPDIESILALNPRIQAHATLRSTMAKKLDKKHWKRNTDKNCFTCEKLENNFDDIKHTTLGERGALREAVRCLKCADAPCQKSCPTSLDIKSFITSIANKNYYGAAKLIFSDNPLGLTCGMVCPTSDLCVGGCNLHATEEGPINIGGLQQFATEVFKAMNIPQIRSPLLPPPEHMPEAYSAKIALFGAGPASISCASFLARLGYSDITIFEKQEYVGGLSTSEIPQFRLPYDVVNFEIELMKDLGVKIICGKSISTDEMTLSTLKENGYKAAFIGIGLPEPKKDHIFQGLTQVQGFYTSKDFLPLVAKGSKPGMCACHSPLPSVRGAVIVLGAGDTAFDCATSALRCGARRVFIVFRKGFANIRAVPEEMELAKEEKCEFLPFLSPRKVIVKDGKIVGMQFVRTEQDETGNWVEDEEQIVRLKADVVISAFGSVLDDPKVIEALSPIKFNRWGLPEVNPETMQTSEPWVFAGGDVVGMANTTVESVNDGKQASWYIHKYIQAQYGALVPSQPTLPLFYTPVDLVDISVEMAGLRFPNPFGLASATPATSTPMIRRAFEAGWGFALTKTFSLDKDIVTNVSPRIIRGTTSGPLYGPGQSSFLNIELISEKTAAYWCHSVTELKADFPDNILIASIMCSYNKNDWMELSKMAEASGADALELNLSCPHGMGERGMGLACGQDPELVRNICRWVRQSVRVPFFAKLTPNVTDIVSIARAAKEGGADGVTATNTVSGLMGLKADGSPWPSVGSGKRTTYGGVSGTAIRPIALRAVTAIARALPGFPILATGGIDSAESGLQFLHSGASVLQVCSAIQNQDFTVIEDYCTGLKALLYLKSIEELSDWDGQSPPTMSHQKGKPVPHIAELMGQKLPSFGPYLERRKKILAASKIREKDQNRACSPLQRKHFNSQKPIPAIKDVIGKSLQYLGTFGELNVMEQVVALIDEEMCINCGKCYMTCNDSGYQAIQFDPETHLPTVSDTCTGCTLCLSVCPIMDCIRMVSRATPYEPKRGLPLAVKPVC
Assay: DPD inhibitory action in vitro (enzyme reaction, tritium-labeled 5-FU as substrate)
Type: biochemical
Experimental: The resulting product was diluted to concentrations of 1 mM, 100 μM, 10 μM, and 1 μM with a 10 mM potassium phosphate buffer solution (pH 6.0), thereby obtaining Test Liquids 1. The obtained Test Liquids 1 were separately added to the enzyme reaction solution described below to give final concentrations of 200 μM, 20 μM, 2 μM, and 0.2 μM. • (b) Test liquid preparation (2): As a DPD inhibitor, 5-chloro-2,4-dihydroxypyridine (CDHP; gimeracil) was dissolved to a concentration of 10 mM in a 10 mM potassium phosphate buffer solution (pH 6.0). The resulting product was diluted to concentrations of 1 mM, 100 μM, 10 μM, and 1 μM, thereby obtaining Test Liquids 2. The obtained Test Liquids 2 were separately added to the enzyme reaction solution to give final concentrations of 200 μM, 20 μM, 2 μM, and 0.2 μM. • (c) Test liquid preparation (3): As an OPRT inhibitor, citrazinic acid (Citra. A.) was dissolved to a concentration of 10 mM in 20 mM trishydroxyaminomethane-hydrochloric buffer solution (pH 8.0). Thereafter, the resulting product was diluted to concentrations of 1 mM, 100 μM, and 10 μM with a 10 mM potassium phosphate buffer solution, thereby obtaining Test Liquids (3). The obtained Test Liquids 3 were separately added to the enzyme reaction solution to give final concentrations of 200 μM, 20 μM, and 2 μM. • (d) Preparation of enzyme solution: The liver of an 8-week old SD rat was used as a DPD enzyme source, while human tumor cells that had been transplanted into a nude mouse and proliferated therein were used as an OPRT enzyme source. Specifically, immediately after a rat liver or successively-transplanted human tumor cells were extracted, a 50-mM tris-hydrochloric acid buffer solution (pH 8.0) containing 0.25 M saccharose, 5 mM magnesium chloride, and 1 mM dithreitol was added thereto to a concentration of 25% (w/v) and homogenized. Thereafter, ultracentrifugation was performed at 105,000 g for 60 minutes, and the obtained supernatant was used as a DPD enzyme solution or an OPRT enzyme solution. • (e) Enzyme reaction: A DPD enzyme reaction was carried out in accordance with the method of Tatsumi et al. (Gann, 78: 748-755 (1987)) using 5-FU labeled with tritium as a substrate. An OPRT enzyme reaction was carried out in accordance with the method of Shirasaka et al. (Cancer Res., 53: 4004-4009 (1993)) using 5-FU labeled with tritium as a substrate. Then, the activity of a control group (with no test compound) and test compound groups was measured. The percent inhibition of the test compound relative to DPD or OPRT was calculated using the following formula: [1-(the enzyme activity with the test compound/the enzyme activity of the control group)]×100(%).
The resulting product was diluted to concentrations of 1 mM, 100 μM, 10 μM, and 1 μM with a 10 mM potassium phosphate buffer solution (pH 6.0), thereby obtaining Test Liquids 1. The obtained Test Liquids 1 were separately added to the enzyme reaction solution described below to give final concentrations of 200 μM, 20 μM, 2 μM, and 0.2 μM. • (b) Preparation of enzyme solution: The liver of an 8-week old SD rat was used as a DPD enzyme source, while human tumor cells that had been transplanted into a nude mouse and proliferated therein were used as an OPRT enzyme source. Specifically, immediately after a rat liver or successively-transplanted human tumor cells were extracted, a 50-mM tris-hydrochloric acid buffer solution (pH 8.0) containing 0.25 M saccharose, 5 mM magnesium chloride, and 1 mM dithreitol was added thereto to a concentration of 25% (w/v) and homogenized. Thereafter, ultracentrifugation was performed at 105,000 g for 60 minutes, and the obtained supernatant was used as a DPD enzyme solution or an OPRT enzyme solution. • (c) Enzyme reaction: A DPD enzyme reaction was carried out in accordance with the method of Tatsumi et al. (Gann, 78: 748-755 (1987)) using 5-FU labeled with tritium as a substrate. […]

Oc1cc(O)c(Cl)cn1 [CDHP, 5-chloro-2,4-dihydroxypyridine, reference compound]
inhibition at 0.2 µM (0.2 μM, Table 2, read-out: DPD Inhibition (%)): 44.8%
inhibition at 2 µM (2 μM, Table 2, read-out: DPD Inhibition (%)): 85.1%
DPD Inhibitory Activity: Activity (Conc. 0.2 μM, Table 1): 0.597 nmol/mL/min
inhibition at 0.2 µM (Conc. 0.2 μM, Table 1, read-out: DPD Inhibitory Activity: Inhibition): 40.8%
DPD Inhibitory Activity: Activity (Conc. 2 μM, Table 1): 0.195 nmol/mL/min
inhibition at 2 µM (Conc. 2 μM, Table 1, read-out: DPD Inhibitory Activity: Inhibition): 80.7%
DPD Inhibitory Activity: Activity (Conc. 20 μM, Table 1): 0.074 nmol/mL/min
inhibition at 20 µM (Conc. 20 μM, Table 1): 92.7%
DPD Inhibitory Activity: Activity (Conc. 200 μM, Table 1): 0.106 nmol/mL/min
inhibition at 200 µM (Conc. 200 μM, Table 1): 89.5%
